Test results as given in ChEMBL document CHEMBL5236653, “Dual functional antioxidant and butyrylcholinesterase inhibitors for the treatment of Alzheimer's disease: Design, synthesis and evaluation of novel melatonin-alkylbenzylamine hybrids” (Bioorg Med Chem, 2023).
pIC50, pKi: −log10 of the molar value.

Assays:
[1] = target: Acetylcholinesterase (Electrophorus electricus, UniProt O42275); test: Inhibition of electric eel AChE using ATCI and BTCI as substrate preincubated for 5 mins followed by substrate addition and measured after 3 mins by DTNB-reagent based Ellman's method
[2] = target: Cholinesterase (Equus caballus, UniProt P81908); test: Inhibition of equine serum BuChE using ATCI and BTCI as substrate preincubated for 5 mins followed by substrate addition and measured after 3 mins by DTNB-reagent based Ellman's method; type: cell-free
[3] = Antioxidant activity assessed as trolox equivalent of ORAC radical scavenging activity by ORAC assay; type: functional
[4] = target: T1, Acetylcholinesterase (Homo sapiens, UniProt P22303); test: Inhibition of human erythrocyte AChE using ATCI and BTCI as substrate preincubated for 5 mins followed by substrate addition and measured after 3 mins by DTNB-reagent based Ellman's method
[5] = target: T2, Cholinesterase (Homo sapiens, UniProt P06276); test: Inhibition of human serum BuChE using ATCI and BTCI as substrate preincubated for 5 mins followed by substrate addition and measured after 3 mins by DTNB-reagent based Ellman's method; type: cell-free
[6] = Selectivity index, ratio of IC50 for inhibition of human erythrocyte AChE to IC50 for inhibition of human serum BuChE
[7] = in vitro; conditions: PAMPA
Description: Permeability coefficient of the compound across blood brain barrier incubated for 18 hrs by PAMPA assay

[8] = target: Acetylcholinesterase (Electrophorus electricus) (UniProt O42275); test: Inhibition of electric eel AChE at 100 uM using ATCI and BTCI as substrate preincubated for 5 mins followed by substrate addition and measured after 3 mins by DTNB-reagent based Ellman's method relative to control; conditions: time 8.0 min
[9] = Selectivity index, ratio of IC50 for inhibition of equine serum BuChE to inhibition of electric eel AChE
[10] = Selectivity index, ratio of IC50 for inhibition of human erythrocyte AChE to inhibition of human serum BuChE
[11] = target: T2, Cholinesterase; test: Mixed type inhibition of human BuChE assessed as inhibition constant using butyrylthiocholine iodide as substrate by lineweaver-burk plot analysis
[12] = tested on: PC-12; test: Cytotoxicity against rat PC12 cells assessed as cell viability at 0.625 to 10 uM measured after 24 hrs by CCK-8 assay; type: toxicity, cell-based; conditions: pc-12, 24 h, dose 0.625-10 µM
[13] = Cytotoxicity against mouse BV-2 cells assessed as cell viability at 10 uM measured after 24 hrs by CCK-8 assay; type: toxicity, cell-based; conditions: read-out: Activity
[14] = tested on: PC-12; test: Activation of Nrf2-ARE pathway in rat PC-12 cells assessed as increase in Nrf2 expression level incubated for 4 to 8 hrs by Western blot analysis; type: cell-based; conditions: filed as activator, dose >= 2.0 µM, time 4-8 hrs
[15] = tested on: PC-12; test: Activation of Nrf2-ARE pathway in rat PC-12 cells assessed as increase in Nrf2 expression level in nucleus at 1 uM by Western blot analysis; type: cell-based; conditions: filed as activator, time >= 8.0 hrs, TDE = time-dependent effect
[16] = tested on: PC-12; test: Activation of Nrf2-ARE pathway in rat PC-12 cells assessed as upregulation of GPX4 expression level incubated for 8 hrs by Western blot analysis; type: cell-based; conditions: filed as activator, dose >= 2.0 µM
[17] = tested on: PC-12; test: Activation of Nrf2-ARE pathway in rat PC-12 cells assessed as upregulation of NQO1 expression level incubated for 8 hrs by Western blot analysis; type: cell-based; conditions: filed as activator, dose >= 2.0 µM
[18] = Acute toxicity in Kunming mouse at >= 2500 mg/kg, IG measured for 14 days; type: organism-based; conditions: in vivo, po, 336 h, time 14 day
[19] = Acute toxicity in Kunming mouse assessed as effect on body weight at 625 to 2500 mg/kg, po measured at 4 to 14 days; type: organism-based; conditions: in vivo, dose lower 625 mg/kg, time lower 4 day, dose upper 2500 mg/kg, time upper 14 day
[20] = Acute toxicity in Kunming mouse assessed as abnormalities in lung at 2500 mg/kg, po measured on day 14 by H and E staining based histopathological analysis; type: organism-based; conditions: in vivo, 336 h, time 14 day
[21] = Acute toxicity in Kunming mouse assessed as abnormalities in liver at 2500 mg/kg, po measured on day 14 by H and E staining based histopathological analysis; type: organism-based; conditions: in vivo, 336 h, time 14 day
[22] = Acute toxicity in Kunming mouse assessed as abnormalities in brain at 2500 mg/kg, po measured on day 14 by H and E staining based histopathological analysis; type: organism-based; conditions: in vivo, 336 h, time 14 day
[23] = Acute toxicity in Kunming mouse assessed as abnormalities in kidney at 2500 mg/kg, po measured on day 14 by H and E staining based histopathological analysis; type: organism-based; conditions: in vivo, 336 h, time 14 day
[24] = tested on: Mus musculus; test: Antialzheimer activity in scopolamine-induced cognitive impairment Kunming mouse model assessed as step down latency time at 80 mg/kg, po administered for 1 hr followed by scopolamine induction for 0.5 hr and measured after 5 min; type: functional; conditions: time 95 min, 1.583 h
[25] = tested on: Mus musculus; test: Antialzheimer activity in scopolamine-induced cognitive impairment Kunming mouse model assessed as number of errors in step down test at 80 mg/kg, po administered for 1 hr followed by scopolamine induction for 0.5 hr and measured after 5 min; type: functional; conditions: time 95 min, 1.583 h
[26] = tested on: Mus musculus; test: Antialzheimer activity in scopolamine-induced cognitive impairment Kunming mouse model assessed as step down latency time at 20 mg/kg, po administered for 1 hr followed by scopolamine induction for 0.5 hr and measured after 5 min (Rvb=36.25 sec); type: functional; conditions: time 95 min, 1.583 h
[27] = tested on: Mus musculus; test: Antialzheimer activity in scopolamine-induced cognitive impairment Kunming mouse model assessed as number of errors in step down test at 20 mg/kg, po administered for 1 hr followed by scopolamine induction for 0.5 hr and measured after 5 min (Rvb=2.2); type: functional; conditions: time 95 min, 1.583 h
[28] = target: T1, Acetylcholinesterase; test: Inhibition of human erythrocyte AChE at 100 uM using ATCI and BTCI as substrate preincubated for 5 mins followed by substrate addition and measured after 3 mins by DTNB-reagent based Ellman's method relative to control; conditions: time 8.0 min

T2 sequence (P06276 whole entry): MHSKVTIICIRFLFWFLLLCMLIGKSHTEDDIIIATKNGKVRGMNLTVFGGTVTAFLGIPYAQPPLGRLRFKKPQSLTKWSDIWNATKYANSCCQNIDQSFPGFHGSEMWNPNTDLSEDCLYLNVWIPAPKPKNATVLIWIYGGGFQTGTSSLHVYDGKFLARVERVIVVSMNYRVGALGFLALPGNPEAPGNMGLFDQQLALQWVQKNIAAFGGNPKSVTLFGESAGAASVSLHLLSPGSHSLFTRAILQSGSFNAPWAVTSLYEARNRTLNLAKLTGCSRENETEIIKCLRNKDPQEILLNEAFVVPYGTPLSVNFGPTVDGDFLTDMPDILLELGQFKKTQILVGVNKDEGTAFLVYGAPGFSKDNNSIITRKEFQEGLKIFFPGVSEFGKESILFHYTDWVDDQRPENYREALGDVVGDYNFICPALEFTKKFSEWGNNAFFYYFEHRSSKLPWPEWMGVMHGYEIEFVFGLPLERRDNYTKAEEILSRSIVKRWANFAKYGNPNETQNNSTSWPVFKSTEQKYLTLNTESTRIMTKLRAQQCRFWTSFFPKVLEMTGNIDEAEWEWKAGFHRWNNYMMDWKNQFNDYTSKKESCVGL
Sequence of Acetylcholinesterase (Electrophorus electricus, UniProt O42275) (O42275 whole entry): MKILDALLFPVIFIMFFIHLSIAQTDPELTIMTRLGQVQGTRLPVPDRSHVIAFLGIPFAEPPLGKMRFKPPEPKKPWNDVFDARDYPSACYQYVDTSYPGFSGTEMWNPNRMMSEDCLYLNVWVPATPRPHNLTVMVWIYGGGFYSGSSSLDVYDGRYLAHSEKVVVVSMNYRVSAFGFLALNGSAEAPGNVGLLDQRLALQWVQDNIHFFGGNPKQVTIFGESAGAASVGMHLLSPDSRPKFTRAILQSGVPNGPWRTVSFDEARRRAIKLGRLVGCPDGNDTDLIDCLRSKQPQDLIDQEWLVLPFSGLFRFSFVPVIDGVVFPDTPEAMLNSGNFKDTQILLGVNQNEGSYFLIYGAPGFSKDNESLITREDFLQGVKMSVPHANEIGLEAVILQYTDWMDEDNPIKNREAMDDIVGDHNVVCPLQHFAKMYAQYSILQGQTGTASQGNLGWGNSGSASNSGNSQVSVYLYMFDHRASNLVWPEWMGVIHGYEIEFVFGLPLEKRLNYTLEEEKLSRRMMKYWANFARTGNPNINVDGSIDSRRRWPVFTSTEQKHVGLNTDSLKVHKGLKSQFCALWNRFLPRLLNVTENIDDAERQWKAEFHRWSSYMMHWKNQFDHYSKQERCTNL
Sequence of Cholinesterase (Equus caballus, UniProt P81908) (P81908 whole entry): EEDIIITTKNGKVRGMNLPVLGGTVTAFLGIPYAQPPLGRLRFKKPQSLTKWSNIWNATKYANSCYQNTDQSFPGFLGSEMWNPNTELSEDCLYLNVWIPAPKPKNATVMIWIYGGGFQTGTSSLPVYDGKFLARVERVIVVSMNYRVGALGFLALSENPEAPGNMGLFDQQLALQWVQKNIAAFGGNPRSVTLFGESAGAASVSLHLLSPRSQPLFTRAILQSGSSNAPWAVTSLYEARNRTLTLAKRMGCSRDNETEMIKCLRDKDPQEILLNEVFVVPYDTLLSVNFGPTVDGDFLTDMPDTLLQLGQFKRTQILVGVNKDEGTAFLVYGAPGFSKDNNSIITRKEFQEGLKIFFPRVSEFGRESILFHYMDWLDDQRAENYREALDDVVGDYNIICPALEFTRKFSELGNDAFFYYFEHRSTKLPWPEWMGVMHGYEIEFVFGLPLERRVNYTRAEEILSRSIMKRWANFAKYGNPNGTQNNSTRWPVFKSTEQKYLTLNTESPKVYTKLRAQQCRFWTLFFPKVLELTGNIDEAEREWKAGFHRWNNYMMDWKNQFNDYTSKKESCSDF
T1 sequence (P22303 whole entry): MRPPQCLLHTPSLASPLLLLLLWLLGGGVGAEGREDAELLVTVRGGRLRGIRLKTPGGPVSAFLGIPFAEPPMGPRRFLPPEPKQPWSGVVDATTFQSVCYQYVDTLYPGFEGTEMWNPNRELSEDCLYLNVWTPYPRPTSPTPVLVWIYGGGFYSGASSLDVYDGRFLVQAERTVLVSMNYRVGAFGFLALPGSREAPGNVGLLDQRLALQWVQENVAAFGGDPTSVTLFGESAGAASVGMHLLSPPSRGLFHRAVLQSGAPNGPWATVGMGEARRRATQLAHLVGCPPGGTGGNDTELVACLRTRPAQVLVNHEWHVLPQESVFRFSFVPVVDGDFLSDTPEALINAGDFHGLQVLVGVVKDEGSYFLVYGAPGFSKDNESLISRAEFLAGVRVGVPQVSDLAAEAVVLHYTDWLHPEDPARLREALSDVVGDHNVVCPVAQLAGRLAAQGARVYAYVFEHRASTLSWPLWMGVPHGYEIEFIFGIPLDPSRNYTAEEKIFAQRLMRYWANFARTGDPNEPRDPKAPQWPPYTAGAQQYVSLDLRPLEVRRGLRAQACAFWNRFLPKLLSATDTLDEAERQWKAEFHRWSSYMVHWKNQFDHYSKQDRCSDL
Sequence of Acetylcholinesterase (Electrophorus electricus) (O42275 24-633 limits assumed): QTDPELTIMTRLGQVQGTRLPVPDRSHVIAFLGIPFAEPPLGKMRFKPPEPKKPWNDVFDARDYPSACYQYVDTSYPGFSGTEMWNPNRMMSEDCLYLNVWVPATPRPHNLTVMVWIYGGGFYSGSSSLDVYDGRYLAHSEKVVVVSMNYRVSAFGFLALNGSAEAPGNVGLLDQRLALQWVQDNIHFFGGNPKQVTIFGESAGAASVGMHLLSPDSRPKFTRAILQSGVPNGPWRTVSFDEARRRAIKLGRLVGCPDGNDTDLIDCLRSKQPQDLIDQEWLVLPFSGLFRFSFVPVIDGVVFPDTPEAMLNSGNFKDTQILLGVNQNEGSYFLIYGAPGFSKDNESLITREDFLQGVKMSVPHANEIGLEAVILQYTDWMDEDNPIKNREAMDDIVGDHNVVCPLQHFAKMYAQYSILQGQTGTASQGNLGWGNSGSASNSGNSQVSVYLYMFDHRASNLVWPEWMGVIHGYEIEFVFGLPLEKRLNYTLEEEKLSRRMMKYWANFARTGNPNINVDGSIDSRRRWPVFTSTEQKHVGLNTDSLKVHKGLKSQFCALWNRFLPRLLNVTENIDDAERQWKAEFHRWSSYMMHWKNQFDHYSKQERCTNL

| Compound | pIC50 [1] | pIC50 [2] | Activity [3] [equiv] | pIC50 [4] | pIC50 [5] | Ratio IC50 [6] | Papp at 18 h [7] [×10⁻⁶ cm/s] | also measured |
| --- | --- | --- | --- | --- | --- | --- | --- | --- |
| COc1ccc2c(c1)c(C=O)cn2CCCCCN(C)Cc1ccc(O)cc1 | 4.57 | 5.21 | 0.78 |  |  |  |  |  |
| COc1ccc2c(c1)c(C=O)cn2CCCCCCCCCCN(C)Cc1ccc(O)cc1 | 5.83 | 6.92 | 0.05 | 6.22 | 6.72 | 3.16 | 5.46 |  |
| COc1ccc2c(c1)c(C=O)cn2CCCCCCCCCCCCN(C)Cc1ccc(OC)c(OC)c1 | 4.29 | 6.06 | < 0.01 |  |  |  | 5.27 |  |
| O=c1c(O)c(-c2ccc(O)c(O)c2)oc2cc(O)cc(O)c12 |  |  | 6.14 |  |  |  |  |  |
| COc1ccc2c(c1)c(C=O)cn2CCCCCCN(C)Cc1cccc(O)c1 | 6.09 | 4.79 | 0.82 |  |  |  |  |  |
| COc1ccc2c(c1)c(C=O)cn2CCCCCCCCCN(C)Cc1cccc(O)c1 | 5.47 | 5.79 | < 0.01 | 5.28 | 5.63 | 2.2 |  |  |
| COc1ccc2c(c1)c(C=O)cn2CCCCN(C)Cc1cccc(O)c1 |  | 4.38 | < 0.01 |  |  |  |  | inhibition [8]: 48.2%; Selectivity Index [9]: > 2 |
| COc1ccc2c(c1)c(C=O)cn2CCCN(C)Cc1ccc(O)cc1 | 4.17 | 5.19 | 1.12 |  |  |  | 5.69 |  |
| COc1ccc2c(c1)c(C=O)cn2CCCCCCCCCN(C)Cc1ccc(O)cc1 | 4.59 | 6.28 | < 0.01 | 5.21 | 6.41 | 16 | 5.85 |  |
| COc1ccc2c(c1)c(C=O)cn2CCCCCCN(C)Cc1ccc(O)cc1 | 6.27 | 5.14 | 0.61 |  |  |  |  |  |
| CN(C)CCCN1c2ccccc2Sc2ccc(Cl)cc21 [CHLORPROMAZINE] |  |  |  |  |  |  | 5.93 |  |
| COc1ccc2c(c1)c(C=O)cn2CCCCCCCCCCCCN(C)Cc1ccc(O)cc1 | 4.47 | 5.98 | < 0.01 | 4.22 | 6.59 |  | 10 | Selectivity Index [10]: > 100 |
| COc1ccc2c(c1)c(C=O)cn2CCCCCN(C)Cc1cccc(O)c1 | 5.15 | 4.34 | 0.2 |  |  |  |  |  |
| COc1ccc2c(c1)c(C=O)cn2CCCCCCCCCCCCN(C)Cc1cccc(O)c1 | 4.56 | 6.51 | < 0.01 | 4.12 | 6.82 | 510 | 4.71 |  |
| C[C@]12CC[C@@H]3c4ccc(O)cc4CC[C@H]3[C@@H]1CC[C@@H]2O [ESTRADIOL] |  |  |  |  |  |  | 14.1 |  |
| CN(CCCCCCCCCCCCn1cc(C=O)c2cc(O)ccc21)Cc1cccc(O)c1 | 4.16 | 5.67 | 5.13 | 3.75 | 5.92 | 148 | 9.98 | pKi [11]: 5.75; Activity [12]: Non-Toxic; viability at 24 h, 10 µM [13]: > 50%; Activity [14]: Dose-Dependent Effect; Activity [15]: Tde; Activity [16]: Dose-Dependent Effect; Activity [17]: Dose-Dependent Effect; Activity [18]: Non-Toxic; Activity [19]: Non-Toxic; Activity [20]: Non-Toxic; Activity [21]: Non-Toxic; Activity [22]: Non-Toxic; Activity [23]: Non-Toxic; Time [24]: 233 s; Activity [25]: 0.6; Time [26]: 17.6 s; Activity [27]: 2.5 |
| COc1ccc(CN(C)CCCCCCCCCCCCn2cc(C=O)c3cc(OC)ccc32)cc1 | 4.10 | 5.26 | < 0.01 |  | 6.37 | 233 | 4.09 | inhibition [28]: 46.1% |
| COc1ccc2c(c1)c(C=O)cn2CCCCCCCCN(C)Cc1ccc(O)cc1 | 5.75 | 6.35 | 0.28 | 5.69 | 6.31 | 4.2 | 4.62 |  |
| COc1ccc2c(c1)c(C=O)cn2CCCCCCCN(C)Cc1ccc(O)cc1 | 5.84 | 5.68 | 1.55 | 5.79 | 6.05 | 1.81 | 4.19 |  |
| COc1ccc2c(c1)c(C=O)cn2CCCCCCCCCCCCCCN(C)Cc1cccc(O)c1 | 4.50 | 5.06 | < 0.01 |  |  |  |  |  |
| COc1cccc(CN(C)CCCCCCCCCCCCn2cc(C=O)c3cc(OC)ccc32)c1 | 4.16 | 6.37 | < 0.01 |  | 5.26 |  | 1.82 | inhibition [28]: 46.1%; Selectivity Index [10]: > 200 |
| COc1ccc2c(c1)c(C=O)cn2CCCCN(C)Cc1ccc(O)cc1 | 4.19 | 4.70 | 0.91 |  |  |  |  |  |
| COc1ccc2c(c1)c(C=O)cn2CCCCCCCCN(C)Cc1cccc(O)c1 | 5.47 | 5.28 | 0.22 | 5.59 | 5.67 | 1.21 | 6.05 |  |
| CCN(CCCCCCCCCCCCn1cc(C=O)c2cc(OC)ccc21)Cc1cccc(O)c1 | 4.98 | 6.72 | 0.13 | 4.37 | 6.06 | 48.3 | 8.18 |  |
| COc1ccc2c(c1)c(C=O)cn2CCCN(C)Cc1cccc(O)c1 |  | 4.14 | 0.37 |  |  |  |  | inhibition [8]: 48.1%; Selectivity Index [9]: > 1 |
| COc1ccc2c(c1)c(C=O)cn2CCCCCCCCCCN(C)Cc1cccc(O)c1 | 5.51 | 6.21 | < 0.01 | 5.34 | 6.72 | 23.8 | 5.76 |  |
| COc1ccc2c(c1)c(C=O)cn2CCCCCCCN(C)Cc1cccc(O)c1 | 5.86 | 5.26 | < 0.01 | 5.26 | 5.31 | 1.13 | 4.78 |  |
